Laboratory results taken from patent US20200369674A1, “ANTI-PAIN COMPOUND AND PREPARATION METHOD THEREOF” (LUNAN PHARMACEUTICAL GROUP CORPORATION, priority 2017, published 2020).

Assays:
Assay type in all cases: in vivo
[1] = system: ICR mice; test: Acetic acid writhing test; set-up: key to Inhibition rate (%): Symbol “—” indicates that the data obtained at this dose was not significantly different from the vehicle control group; settings: 1 mg/kg intragastric, 0.6% acetic acid ip two hours after administration
Protocol: (§1) ICR mice, 18-22 g, half of them being male and the other half being female, provided by the Department of Laboratory Animals, Peking University (License No.: SCXK (Beijing) 2016-0010).
ICR mice, half of them being male and the other half being female, were randomly grouped, 8 mice per group. Vehicle control group (double-distilled water), ibuprofen control group, and groups for samples to be tested (the compounds and doses thereof were shown in Table 2) were set. All drugs were dissolved in double-distilled water before administration, and given by intragastric administration at predetermined doses. Two hours after the administration, the mice were intraperitoneally injected with 0.6% acetic acid solution (10 ml/kg, ip), and the number of times the mice writhed (abdomen depressed, buttock raised, body elongated) was recorded within 5-20 minutes. The inhibition rate % of compound on writhing pain in mice was calculated according to the following formula.
Inhibition rate %=(number of writhing times in vehicle control group−number of writhing times in test group)/number of writhing times in vehicle control group×100

[2] = system: ICR mice; test: Xylene-induced mouse ear swelling test (Effect Example 4); settings: Mus musculus, po, 2 h; 1 mg/kg intragastric, 50 uL xylene two hours after administration; read-out: Inhibition rate (%)
Protocol: as §1
ICR mice were randomly grouped, 8 mice per group, half of them being male and the other half being female. Vehicle control group (double-distilled water) and groups for samples to be tested (the compounds and doses thereof were shown in Table 4). All drugs were dissolved in double-distilled water immediately before administration, and given by intragastric administration at predetermined doses. Two hours after administration, 50 uL of xylene was smeared evenly on the inner and outer sides of right ear of mouse. After 30 minutes, the left and right ears of mouse were cut, and circular ear pieces of the same size were punched at the same position on the left and right ears, and weighed. The ear swelling inhibition rate of compound in mice was calculated according to the formula.
Inhibition rate %=(degree of ear swelling in vehicle control group−degree of ear swelling in test group)/degree of ear swelling in vehicle control group×100

[3] = system: ICR mice; test: Carrageenan-induced paw swelling in mice; settings: 1 mg/kg i.g.; for 0.5 h inhibition rate (%) / 0.5 h swelling degree (μL): 0.5 h after carrageenan injection; for 0.5 h swelling degree (μL) / 1 h swelling degree (μL) / 2 h swelling degree (μL): mean±SD; for 1 h inhibition rate (%) / 1 h swelling degree (μL): 1 h after carrageenan injection; for 2 h inhibition rate (%) / 2 h swelling degree (μL): 2 h after carrageenan injection
Protocol: (§2) ICR mice, body weight 18 g-22 g, half of them being male and the other half being female, provided by the Department of Laboratory Animals, Peking University. The animals were raised in a standard environment: temperature 23±1° C., relative humidity 55±5%, light-dark cycle 12 h/12 h, and fed with standard pellet feed.
The mouse was fixed in a special holder, and both hind feet were exposed. Before the test, a line was drawn at 0.5 cm below the ankle joint of mouse with a marker, and used as a mark for measuring plantar volume. 30 minutes before administration the volume of right hind foot was measured as basic threshold. The mice were randomly divided into 5 groups, 8 mice per group, half of them being male and the other half being female. Vehicle control group (double-distilled water, i.g.), dexamethasone control group (0.5 mg/kg, i.g.), compound DXL-A-22 group (1 mg/kg, i.g.), and DXL-A-24 group (1 mg/kg, i.g.) were set. All drugs were dissolved in double-distilled water before administration, and were administered at 0.1 mL/10 g. Immediately after intragastric administration, 20 μL of 5% carrageenan saline solution was injected subcutaneously in the right hind foot of the mice, and the plantar volumes were measured at time points of 0.5 h, 1 h and 2 h after injection. The difference between the plantar volume of right foot after injection of carrageenan and the plantar volume of right foot before injection was used as swelling degree index (i.e., swelling degree). The swelling degree was calculated according to formula (3). The intensity of anti-inflammatory effect was expressed as inhibition rate (%), and the inhibition rate (%) was calculated according to formula (4).
Swelling degree=plantar volume of right foot after injection−plantar volume of right foot before injection (3)
Inflammation inhibition rate (%)=(plantar swelling degree in vehicle control group−plantar swelling degree in drug administration group)/plantar swelling degree in vehicle control group×100% (4)

[4] = system: ICR mice; test: Xylene-induced ear swelling test in mice (Effect Example 6); settings: 1 mg/kg i.g., 30 μL xylene one hour after administration; for Swelling degree: mean±SD
Protocol: as §2
Mice were randomly divided into 5 groups, 8 mice per group, half of them being male and the other half being female. Vehicle control group (double-distilled water, i.g.), dexamethasone control group (2 mg/kg, i.g.), compound DXL-A-22 group (1 mg/kg, i.g.), and compound DXL-A-24 group (1 mg/kg, i.g.) were set. All drugs were dissolved in double-distilled water before administration, and given by intragastric administration at 0.1 mL/10 g. One hour after administration, 30 μL of xylene was evenly smeared on the inner and outer sides of right ear of mouse to cause inflammation. After 0.5 hour, the left and right ears of mouse were cut, and circular ear pieces of the same size were punched at the same position on the left and right ears using the punch (diameter 6 mm) respectively, and weighed for the weights of the left and right ear pieces. The difference between the weight of the right ear after applying xylene and the weight of the left ear without applying xylene was used as swelling degree index (i.e., swelling degree). The swelling degree was calculated according to formula (1). The intensity of anti-inflammatory effect was expressed as inhibition rate (%), and the inhibition rate (%) was calculated according to formula (2).
Swelling degree=weight of right ear piece−weight of left ear piece (1)
Inflammation inhibition rate (%)=(ear swelling degree in vehicle control group−ear swelling degree in drug group)/ear swelling degree in vehicle control group×100% (2)

[5] = system: ICR mice; test: Formalin experiment; settings: Mus musculus, po, 2 h; 1 mg/kg intragastric, 2.5% formalin two hours after administration, phase II 10-60 minutes; read-out: Phase II pain inhibition rate (%)
Protocol: as §1
ICR mice, half of them being male and the other half being female, were randomly grouped, 8 mice per group. Vehicle control group (double-distilled water) and groups for samples to be tested were set, in which the compounds and doses thereof were shown in Table 3. All drugs were dissolved in double-distilled water before administration, and given by intragastric administration at predetermined doses. Two hours after administration, the mice were injected with 20 ul of 2.5% formalin solution in the right hind foot, and the time (s) of licking or biting foot was recorded as an index of pain response, in which 0-5 minutes was phase I, 10-60 minutes was phase II, and the total observation time was 60 minutes. The phase II pain inhibition rate of compound in mice was calculated according to the following formula:
Inhibition rate %=(time of licking or biting foot in vehicle control group−time of licking or biting foot in test group)/time of licking or biting foot in vehicle control group×100

In the case of `Br.Brc1ccc(N2CC[N+]3(CCCC3)CC2)cc1` [DXL-A-22, 8-(4-bromophenyl)-5,8-diazaspiro[4.5]decan-5-ium bromide], the “Inhibition rate (%)” value [1] is reported as “—”, the inhibition in vivo at 1 mg/kg [2] is reported as 47% and the “0.5 h inhibition rate (%)” value [3] is reported as 50.07%. For the same compound, the “0.5 h swelling degree (μL)” value [3] was 42.63 ± 16.98**/ μL, the “1 h inhibition rate (%)” value [3] was 55.56% and the “1 h swelling degree (μL)” value [3] was 38.50 ± 11.40**/ μL. The “2 h inhibition rate (%)” value [3] was 65.36%, the “2 h swelling degree (μL)” value [3] was 38.63 ± 11.67**/ μL and the “Inhibition rate (%)” value [4] was 42.62%. The “Swelling degree” value [4] was 5.48 ± 0.16 mg and the inhibition in vivo at 1 mg/kg [5] was 52.6%.
In the case of `FC(F)(F)c1ccc(N2CC[N+]3(CCCC3)CC2)cc1.[Br-]` [DXL-A-24, 8-(4-(trifluoromethyl)phenyl)-5,8-diazaspiro[4.5]decan-5-ium bromide], the “Inhibition rate (%)” value [1] is reported as “—”, the inhibition in vivo at 1 mg/kg [2] is reported as 53.4% and the “0.5 h inhibition rate (%)” value [3] is reported as 52.27%. The “0.5 h swelling degree (μL)” value [3] was 40.75 ± 13.34**/ μL, the “1 h inhibition rate (%)” value [3] was 57.72% and the “1 h swelling degree (μL)” value [3] was 36.63 ± 16.12**/ μL. For the same compound, the “2 h inhibition rate (%)” value [3] was 67.49%, the “2 h swelling degree (μL)” value [3] was 36.25 ± 9.60**/ μL and the “Inhibition rate (%)” value [4] was 51.41%. The “Swelling degree” value [4] was 4.64 ± 0.11 mg and the inhibition in vivo at 1 mg/kg [5] was 50.2%.
